The subject of one test is P. falciparum Dd2. In words: Phenotypic screen: asexual blood stage EC50 determination (SYBR Green I). It is filed as cell-based. As to conditions: values in Data S1 (not shown). Here is the method: Asexual blood stage parasites grown in the Chakrabarti laboratory were cultured based on a protocol by Trager and Jensen[57] with some modifications.[35] Culture was maintained at 4% hematocrit with human A+ whole blood obtained from the Florida OneBlood, in RPMI 1640 supplemented with 25 mM HEPES pH 7.4, 26 mM NaHCO3, 2% dextrose, 15 mg/L hypoxanthine, 25 mg/L gentamycin, and 0.5% Albumax II. Incubator conditions remained at 37°C and 5% CO2, 5% O2, 90% N2, or 95% air. For comparison screening using serum vs Albumax II, culture media was changed from RPMI with 0.5% Albumax II to RPMI with 10% human serum and maintained for a minimum of 2 weeks prior to assay use.
(§1) Inhibitor EC50 determination in 3D7 and Dd2 was performed as discussed in,[35] based on established protocols.[60] Assays utilized asynchronous culture at 1% parasitemia, 1% hematocrit. Culture was incubated with compound dilutions for 72 h followed by freezing at −80°C to promote lysis, then thawing and incubation for 45 min–1 h with 1× SYBR Green I in a lysis buffer (20 mM Tris-HCL, 0.08% saponin, 5 mM EDTA, and 0.8% Triton X-100). Fluorescence was read 485 nm excitation, 530 nm emission on a Synergy Neo2 multimode reader (BioTek Winsooki, VT) and EC50 curves were generated using CDD Vault (https://www.collaborativedrug.com/).

For the next test, the system named is PfMDR1 cKD parasite line. As to the kind of experiment: MDR1 compound susceptibility assay (Renilla luciferase). The class given is cell-based, P. falciparum. The text has this: A conditional knockdown parasite line was generated for the P. falciparum multi-drug resistance 1 (MDR1; PF3D7_0523000) following previously described procedures.[84]^,[85] The native PfMDR1 locus was engineered using CRISPR/SpCas9 to afford transcriptional fusion of 10 tandem TetR-DOZI binding aptamers in the 3′UTR for anhydrotetracycline (aTc)-dependent regulation of PfMDR1 expression.
(§2) As a control cell line, a parasite line expressing an aptamer-regulatable fluorescent protein integrated in the cg6 locus[84] was assayed in parallel. Synchronous ring-stage parasites in the presence (0.5 μM) and absence of aTc were dispensed into 384-well polystyrene microplates (Corning®), and compounds added using the Janus® platform (PerkinElmer). DMSO- and DHA (0.5 μM) served as normalization controls for maximal and minimum signal. Luminescence was measured after 72 h and IC50 values were obtained from normalized dose-response curves using GraphPad Prism Version 8.

Test [1] has as its system wild-type YFP-expressing NF54. In words: MDR1 compound susceptibility assay, control line. The class given is cell-based, P. falciparum. The note with it: Plasmodium falciparum, NF54, MDR1, 72 h, read-out: IC50 in the wild-type YFP-expressing NF54. Here is the method:
as §2

The conditions of test [2]: concentrations up to 200 μM; propionate buffer pH 5.2, 16 h, 37°C; biological triplicate.
Method: Assay plates were incubated at 37°C with gentle shaking for 16 h. A combination of 7.5% SDS in a 0.1 M bicarbonate buffer (pH 9.1) was then added to microtiter wells at a 1:3 ratio with gentle mixing. Plates were incubated for 10 min to allow crystals to settle before taking 50 μL of supernatant and adding it to 200 μL of 2.5% SDS in a 0.1 M bicarbonate buffer, pH 9.1. After mixing, absorbances were read at 405 nm on a Synergy Neo2 multimode reader (BioTek, Winsooki, VT). […] Images of the 200 μM treatment or control prior to SDS quenching were taken using a Nikon Eclipse TE200 inverted microscope.
Test [3] relates to P. falciparum asexual blood stage parasites grown in 0.5% Albumax II. As to the kind of experiment: Antiplasmodial activity with Albumax II media. As to conditions: Plasmodium falciparum; RPMI with 0.5% Albumax II; mean ± SEM from 3 biological replicates. The class given is cell-based. Here is the method:
(§3) Asexual blood stage parasites grown in the Chakrabarti laboratory were cultured based on a protocol by Trager and Jensen[57] with some modifications.[35] […] For comparison screening using serum vs Albumax II, culture media was changed from RPMI with 0.5% Albumax II to RPMI with 10% human serum and maintained for a minimum of 2 weeks prior to assay use.
as §1

Test [4] has as its system P. falciparum asexual blood stage parasites grown in 10% human serum. As to the kind of experiment: Antiplasmodial activity with serum media. The class given is cell-based. The note with it: Plasmodium falciparum, 336 h; RPMI with 10% human serum, maintained minimum 2 weeks; mean ± SEM from 3 biological replicates. As to the method: as §3, §1

“Ac-Aib-L-Asn-L-Leu-L-Ile-Aib-L-Pro-D-Iva-L-Leu-Aib-L-Pro-L-Leu-NH2 [Harzianin HB I – amide, synthesized amide of an 11-AA peptaibol]”: the “activity of new isomers relative to their original counterparts” value with P. falciparum Dd2 was “decreased inhibition”.

A word on the IC50: it is the midpoint of a concentration-inhibition curve. Take `OC(c1cc(C(F)(F)F)nc2c(C(F)(F)F)cccc12)C1CCCCN1` (stereo not shown) [mefloquine, reference compound]: the IC50 was determined as 5 nM in the test on PfMDR1 cKD parasite line (Plasmodium falciparum, MDR1, 72 h, read-out: IC50 when the protein was knocked down) and 0.4 nM in test [1]. Also, the “shift in sensitivity upon PfMDR1 knockdown” value in the test with PfMDR1 cKD parasite line (with (0.5 μM) vs without aTc, 72 h, luminescence) was about 12 fold.

As usually defined, the EC50 is the concentration giving half of the maximal effect. In the case of `CCN(CC)CCCC(C)Nc1ccnc2cc(Cl)ccc12` (stereo not shown) [CQ, chloroquine, reference compound], the “inhibition of β-hematin crystallization” value in test [2] was “clear, dose-dependent inhibition”. For the same molecule, the EC50 in test [3] amounted to 160 ± 10 nM; in test [4] it was 100 ± 20 nM.

Values taken from paper PMC10923054, “Antiplasmodial peptaibols act through membrane directed mechanisms” (Cell Chemical Biology, 2024).
